Series [1] can be described thus: Cytotoxicity against mouse EAC cells. Type of series: functional. As to conditions: Ehrlich, read-out: ED50 (the source's name).
Series [2] is described as follows: Toxicity against mouse. Type of series: organism-based. As to conditions: in vivo.

The structures appear in SMILES notation. Converted amounts (≈) assume the structure as drawn. Bounds are passed on as bounds.

In general, LD50 refers to the dose at which mortality reaches 50%.

Take `Oc1cc(Br)c(Br)c2c1Oc1cc(Br)cc(Br)c1O2` [SPONGIADIOXIN A]: in series [1], the EC50 amounted to 29 µg/mL (≈ 56.2 µM). In series [2], this compound returned a 50% lethal dose (LD50) of more than 150 mg/kg.

For `Oc1c(Br)c(Br)cc2c1Oc1cc(Br)cc(Br)c1O2` [SPONGIADIOXIN B], in series [1], the EC50 is 15.5 µg/mL (≈ 30.1 µM). Also, the median lethal dose (LD50) in series [2] was more than 150 mg/kg.

Source of the values: ChEMBL document CHEMBL1155714, “Spongiadioxins A and B, two new polybrominated dibenzo-p-dioxins from an Australian marine sponge Dysidea dendyi” (J Nat Prod, 2001).
